# In ChEMBL document CHEMBL3885861, “Open TG-GATES”:
# Species: Rattus norvegicus
# Test: Open TG-GATES - Regimen: Single
# Assay type: toxicity, organism-based, Sprague-Dawley
# Design: regimen Single, gender Male, age 6 weeks
# Conditions: in vivo, po, 0 mg/kg, route gavage, dose level Control; for APTT / Bas / Eos / Fbg / Hb / Ht / Lym / MCH / MCHC / MCV / Mono / Neu / PT / Plat / RBC / Ret / WBC: tissue Blood; for KIDNEY_L / KIDNEY_R / KIDNEY_TOTAL: tissue Kidney; for LIVER: tissue Liver; for A/G / ALP / ALT / AST / BUN / CRE / Ca / Cl / DBIL / GLC / IP / K / LDH / Na / PL / RALB / TBIL / TC / TG / TP / gamma-GTP: tissue Plasma
smiles,measurement,setting,value
CC(=O)Oc1cc(C(C)C)c(OCCN(C)C)cc1C [MOXISYLYTE],TERMINAL_BW,3 h,216.6 g
same,APTT,3 h,21.3 s
same,Bas,3 h,0%
same,Eos,3 h,1%
same,Fbg,3 h,307.8 mg/dL
same,Hb,3 h,13 g/dL
same,Ht,3 h,37.8%
same,Lym,3 h,76.6%
same,MCH,3 h,21.2 pg
same,MCHC,3 h,34.4%
same,MCV,3 h,61.6 fL
same,Mono,3 h,2.4%
same,Neu,3 h,19.2%
same,PT,3 h,16.1 s
same,Plat,3 h,118.3 x10_4/uL
same,RBC,3 h,614.4 x10_4/ul
same,Ret,3 h,8.8%
same,WBC,3 h,111.5 x10_2/uL
same,KIDNEY_L,3 h,0.9 g
same,KIDNEY_R,3 h,0.9 g
same,KIDNEY_TOTAL,3 h,1.9 g
same,LIVER,3 h,9.9 g
same,A/G,3 h,1.3
same,ALP,3 h,1431.6 IU/L
same,ALT,3 h,41 IU/L
same,AST,3 h,73.6 IU/L
same,BUN,3 h,14.6 mg/dL
same,CRE,3 h,0.2 mg/dL
same,Ca,3 h,10.8 mg/dL
same,Cl,3 h,106 meq/L
same,DBIL,3 h,0.004 mg/dL
same,GLC,3 h,186.8 mg/dL
same,IP,3 h,7.7 mg/dL
same,K,3 h,4.3 meq/L
same,LDH,3 h,263.8 IU/L
same,Na,3 h,141.6 meq/L
same,PL,3 h,137.4 mg/dL
same,RALB,3 h,3 g/dL
same,TBIL,3 h,0.02 mg/dL
same,TC,3 h,79.8 mg/dL
same,TG,3 h,57 mg/dL
same,TP,3 h,5.3 g/dL
same,gamma-GTP,3 h,1 IU/L
same,TERMINAL_BW,6 h,204.4 g
same,APTT,6 h,20.5 s
same,Bas,6 h,0%
same,Eos,6 h,1%
same,Fbg,6 h,338.6 mg/dL
same,Hb,6 h,13.7 g/dL
same,Ht,6 h,39.5%
same,Lym,6 h,80.2%
same,MCH,6 h,21.4 pg
same,MCHC,6 h,34.6%
same,MCV,6 h,61.9 fL
same,Mono,6 h,1.8%
same,Neu,6 h,16.6%
same,PT,6 h,16.4 s
same,Plat,6 h,129.2 x10_4/uL
same,RBC,6 h,638.2 x10_4/ul
same,Ret,6 h,8.1%
same,WBC,6 h,99.5 x10_2/uL
same,KIDNEY_L,6 h,0.9 g
same,KIDNEY_R,6 h,1 g
same,KIDNEY_TOTAL,6 h,1.9 g
same,LIVER,6 h,8.8 g
same,A/G,6 h,1.3
same,ALP,6 h,1524.2 IU/L
same,ALT,6 h,40.2 IU/L
same,AST,6 h,76.4 IU/L
same,BUN,6 h,10.8 mg/dL
same,CRE,6 h,0.1 mg/dL
same,Ca,6 h,10.6 mg/dL
same,Cl,6 h,106.6 meq/L
same,DBIL,6 h,0.024 mg/dL
same,GLC,6 h,183.4 mg/dL
same,IP,6 h,8.9 mg/dL
same,K,6 h,4.4 meq/L
same,LDH,6 h,273 IU/L
same,Na,6 h,141.4 meq/L
same,PL,6 h,125.4 mg/dL
same,RALB,6 h,3.1 g/dL
same,TBIL,6 h,0.016 mg/dL
same,TC,6 h,71.4 mg/dL
same,TG,6 h,47.8 mg/dL
same,TP,6 h,5.4 g/dL
same,gamma-GTP,6 h,1.2 IU/L
same,TERMINAL_BW,9 h,211.6 g
same,APTT,9 h,20.8 s
same,Bas,9 h,0%
same,Eos,9 h,1%
same,Fbg,9 h,295.6 mg/dL
same,Hb,9 h,13.2 g/dL
same,Ht,9 h,38.3%
same,Lym,9 h,82.2%
same,MCH,9 h,21.6 pg
same,MCHC,9 h,34.4%
same,MCV,9 h,62.7 fL
same,Mono,9 h,2%
same,Neu,9 h,14.8%
same,PT,9 h,16.1 s
same,Plat,9 h,114.1 x10_4/uL
same,RBC,9 h,611 x10_4/ul
same,Ret,9 h,8.2%
same,WBC,9 h,120.9 x10_2/uL
same,KIDNEY_L,9 h,1 g
same,KIDNEY_R,9 h,1 g
same,KIDNEY_TOTAL,9 h,1.9 g
same,LIVER,9 h,8.9 g
same,A/G,9 h,1.3
same,ALP,9 h,1372.2 IU/L
same,ALT,9 h,36.8 IU/L
same,AST,9 h,72 IU/L
same,BUN,9 h,12.8 mg/dL
same,CRE,9 h,0.1 mg/dL
same,Ca,9 h,10.5 mg/dL
same,Cl,9 h,106.6 meq/L
same,DBIL,9 h,0.018 mg/dL
same,GLC,9 h,184.8 mg/dL
same,IP,9 h,9.6 mg/dL
same,K,9 h,4.5 meq/L
same,LDH,9 h,214 IU/L
same,Na,9 h,142.2 meq/L
same,PL,9 h,133.2 mg/dL
same,RALB,9 h,3 g/dL
same,TBIL,9 h,0.014 mg/dL
same,TC,9 h,71.8 mg/dL
same,TG,9 h,65.4 mg/dL
same,TP,9 h,5.4 g/dL
same,gamma-GTP,9 h,1 IU/L
same,TERMINAL_BW,24 h,218.4 g
same,APTT,24 h,20.3 s
same,Bas,24 h,0%
same,Eos,24 h,0.8%
same,Fbg,24 h,285.6 mg/dL
same,Hb,24 h,13.6 g/dL
same,Ht,24 h,39.3%
same,Lym,24 h,79.2%
same,MCH,24 h,21.5 pg
same,MCHC,24 h,34.5%
same,MCV,24 h,62.3 fL
same,Mono,24 h,2.2%
same,Neu,24 h,17.4%
same,PT,24 h,16.2 s
same,Plat,24 h,118.6 x10_4/uL
same,RBC,24 h,631.4 x10_4/ul
same,Ret,24 h,7.8%
same,WBC,24 h,102.9 x10_2/uL
same,KIDNEY_L,24 h,1 g
same,KIDNEY_R,24 h,1 g
same,KIDNEY_TOTAL,24 h,1.9 g
same,LIVER,24 h,10 g
same,A/G,24 h,1.2
same,ALP,24 h,1643.4 IU/L
same,ALT,24 h,44.8 IU/L
same,AST,24 h,78.2 IU/L
same,BUN,24 h,18.4 mg/dL
same,CRE,24 h,0.2 mg/dL
same,Ca,24 h,10.9 mg/dL
same,Cl,24 h,106.8 meq/L
same,DBIL,24 h,0 mg/dL
same,GLC,24 h,189 mg/dL
same,IP,24 h,6.6 mg/dL
same,K,24 h,4.3 meq/L
same,LDH,24 h,251.4 IU/L
same,Na,24 h,142 meq/L
same,PL,24 h,151.4 mg/dL
same,RALB,24 h,3.1 g/dL
same,TBIL,24 h,0.006 mg/dL
same,TC,24 h,79.8 mg/dL
same,TG,24 h,89 mg/dL
same,TP,24 h,5.7 g/dL
same,gamma-GTP,24 h,1.2 IU/L
